What was measured:
[1] = target: T1, HCV NS3/4A protease D168A variant (Hepatitis C virus genotype 1a, UniProt P27958, C1185S/D1194A); test: biochemical; type: biochemical
T1 construct: His-tag (cleaved yes); made in house; host or cells: Escherichia coli BL21(DE3), PET28a vector
Protocol: (§1) The HCV GT1a NS3/4A protease gene described in the Bristol Myers Squibb patent was synthesized by GenScript and cloned into a PET28a expression vector. Cys159 was mutated to a serine residue to prevent disulfide bond formation and facilitate crystallization. The D168A gene was engineered using the site-directed mutagenesis protocol from Stratagene. Protein expression and purification were carried out as previously described.
(§2) Km constants for GT1 and D168A protease were previously determined. […] Inner filter effect corrections were applied to the initial velocities (Vo) at each substrate concentration. Vo versus substrate concentration graphs were globally fit to the Michaelis-Menten equation to obtain the Km value.
(§3) For each assay, 2 nM of NS3/4A protease (GT1a and D168A) was pre-incubated at room temperature for 1 h with increasing concentration of inhibitors in assay buffer (50 mM Tris, 5% glycerol, 10 mM DTT, 0.6 mM LDAO, and 4% dimethyl sulfoxide, pH 7.5). Inhibition assays were performed in non-binding surface 96-well black half-area plates (Corning) in a reaction volume of 60 μL. […] Three independent data sets were collected for each inhibitor with each protease construct.

[2] = target: T2, wild-type HCV NS3/4A protease (GT1a) (Hepatitis C virus genotype 1a, UniProt P27958, C1185S); test: biochemical; type: biochemical
T2 construct: His-tag (cleaved yes); made in house; host or cells: Escherichia coli BL21(DE3), PET28a vector
Protocol: as §1, §2, §3

T2 sequence (P27958 1027-1208 C1185S): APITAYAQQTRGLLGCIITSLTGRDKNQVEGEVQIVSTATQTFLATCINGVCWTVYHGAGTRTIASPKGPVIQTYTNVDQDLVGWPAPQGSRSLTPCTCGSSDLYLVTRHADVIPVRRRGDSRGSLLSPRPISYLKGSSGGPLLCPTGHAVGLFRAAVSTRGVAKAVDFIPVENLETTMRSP
T1 sequence (P27958 1027-1208 C1185S/D1194A): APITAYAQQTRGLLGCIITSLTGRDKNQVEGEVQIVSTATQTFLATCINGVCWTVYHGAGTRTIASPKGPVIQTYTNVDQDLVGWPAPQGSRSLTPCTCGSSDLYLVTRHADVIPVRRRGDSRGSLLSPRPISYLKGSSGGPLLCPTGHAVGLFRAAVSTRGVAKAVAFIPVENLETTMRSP

| SMILES | Ki [1] [nM] | Ki [2] [nM] |
| --- | --- | --- |
| COc1ccc2nc(C)c(O[C@@H]3C[C@H]4C(=O)N[C@]5(C(=O)NS(=O)(=O)C6(C)CC6)C[C@H]5/C=C\CCCCC[C@H](NC(=O)OC5CC(F)(F)C5)C(=O)N4C3)nc2c1 [NR01-149, 3,3-Difluorocyclobutyl ((2R,6S,13aS,14aR,16aS,Z)-2-((7-methoxy-3-methylquinoxalin-2-yl)oxy)-14a-(((1-methylcyclopropyl)sulfonyl)carbamoyl)-5,16-dioxo-1,2,3,5,6,7,8,9,10,11,13a,14,14a,15,16,16a-hexadecahydrocyclopropa[e]pyrrolo[1,2-a][1,4]diazacyclopentadecin-6-yl)carbamate] | 26 ± 1 | 0.62 ± 0.3 |
| COc1ccc2nc(C(F)(F)F)c(O[C@@H]3C[C@H]4C(=O)N[C@]5(C(=O)NS(=O)(=O)C6(C)CC6)C[C@H]5/C=C\CCCCC[C@H](NC(=O)OC5CC(F)(F)C5)C(=O)N4C3)nc2c1 [NR01-151, 3,3-Difluorocyclobutyl ((2R,6S,13aS,14aR,16aS,Z)-2-((7-methoxy-3-(trifluoromethyl)quinoxalin-2-yl)oxy)-14a-(((1-methylcyclopropyl)sulfonyl)carbamoyl)-5,16-dioxo-1,2,3,5,6,7,8,9,10,11,13a,14,14a,15,16,16a-hexadecahydrocyclopropa[e]pyrrolo[1,2-a][1,4]diazacyclopentadecin-6-yl)carbamate] | 43.2 ± 6.3 | 10.9 ± 1.1 |
| COc1ccc2nc(C(F)(F)F)c(O[C@@H]3C[C@H]4C(=O)N[C@]5(C(=O)NS(=O)(=O)C6(C)CC6)C[C@H]5/C=C\CCCCC[C@H](NC(=O)O[C@@H]5CCC[C@H]5F)C(=O)N4C3)nc2c1 [NR02-09, (1R,2R)-2-Fluorocyclopentyl ((2R,6S,13aS,14aR,16aS,Z)-2-((7-methoxy-3-(trifluoromethyl)quinoxalin-2-yl)oxy)-14a-(((1-methylcyclopropyl)sulfonyl)carbamoyl)-5,16-dioxo-1,2,3,5,6,7,8,9,10,11,13a,14,14a,15,16,16a-hexadecahydrocyclopropa[e]pyrrolo[1,2-a][1,4]diazacyclopentadecin-6-yl)carbamate] | 18.9 ± 3.6 | 8 ± 1.8 |
| COc1ccc2nc(C)c(O[C@@H]3C[C@H]4C(=O)N[C@]5(C(=O)NS(=O)(=O)C6(C)CC6)C[C@H]5/C=C\CCCCC[C@H](NC(=O)O[C@@H](C)C(F)(F)F)C(=O)N4C3)nc2c1 [NR02-23, (S)-1,1,1-Trifluoropropan-2-yl ((2R,6S,13aS,14aR,16aS,Z)-2-((7-methoxy-3-methylquinoxalin-2-yl)oxy)-14a-(((1-methylcyclopropyl)sulfonyl)carbamoyl)-5,16-dioxo-1,2,3,5,6,7,8,9,10,11,13a,14,14a,15,16,16a-hexadecahydrocyclopropa[e]pyrrolo [1,2-a][1,4]diazacyclopentadecin-6-yl)carbamate] | 40 ± 6 | 0.74 ± 0.2 |
| COc1ccc2nc(C)c(O[C@@H]3C[C@H]4C(=O)N[C@]5(C(=O)NS(=O)(=O)C6(C)CC6)C[C@H]5/C=C\CCCCC[C@H](NC(=O)O[C@@H](C)C5CC5)C(=O)N4C3)nc2c1 [NR02-25, (S)-1-Cyclopropylethyl ((2R,6S,13aS,14aR,16aS,Z)-2-((7-methoxy-3-methylquinoxalin-2-yl)oxy)-14a-(((1-methylcyclopropyl)sulfonyl)carbamoyl)-5,16-dioxo-1,2,3,5,6,7,8,9,10,11,13a,14,14a,15,16,16a-hexadecahydrocyclopropa[e]pyrrolo [1,2-a][1,4]diazacyclopentadecin-6-yl)carbamate] | 31.9 ± 1.8 | 1.84 ± 0.12 |
| COc1ccc2nc(C)c(O[C@@H]3C[C@H]4C(=O)N[C@]5(C(=O)NS(=O)(=O)C6(C)CC6)C[C@H]5/C=C\CCCCC[C@H](NC(=O)O[C@H](C)C5CC5)C(=O)N4C3)nc2c1 [NR02-26, (R)-1-Cyclopropylethyl ((2R,6S,13aS,14aR,16aS,Z)-2-((7-methoxy-3-methylquinoxalin-2-yl)oxy)-14a-(((1-methylcyclopropyl)sulfonyl)carbamoyl)-5,16-dioxo-1,2,3,5,6,7,8,9,10,11,13a,14,14a,15,16,16a-hexadecahydrocyclopropa[e]pyrrolo[1,2-a][1,4]diazacyclopentadecin-6-yl)carbamate] | 23.5 ± 1.3 | 1.5 ± 0.06 |
| COc1ccc2nc(C(F)(F)F)c(O[C@@H]3C[C@H]4C(=O)N[C@]5(C(=O)NS(=O)(=O)C6(C)CC6)C[C@H]5/C=C\CCCCC[C@H](NC(=O)OC5(C)CC5)C(=O)N4C3)nc2c1 [NR02-31, 1-Methylcyclopropyl ((2R,6S,13aS,14aR,16aS,Z)-2-((7-methoxy-3-(trifluoromethyl)quinoxalin-2-yl)oxy)-14a-(((1-methylcyclopropyl)sulfonyl)carbamoyl)-5,16-dioxo-1,2,3,5,6,7,8,9,10,11,13a,14,14a,15,16,16a-hexadecahydrocyclopropa[e]pyrrolo[1,2-a][1,4]diazacyclopentadecin-6-yl)carbamate] | 41.3 ± 7.3 | 11.4 ± 0.84 |
| COc1ccc2nc(C(F)(F)F)c(O[C@@H]3C[C@H]4C(=O)N[C@]5(C(=O)NS(=O)(=O)C6(C)CC6)C[C@H]5/C=C\CCCCC[C@H](NC(=O)O[C@H](C)C5CC5)C(=O)N4C3)nc2c1 [NR02-34, (R)-1-Cyclopropylethyl ((2R,6S,13aS,14aR,16aS,Z)-2-((7-methoxy-3-(trifluoromethyl)quinoxalin-2-yl)oxy)-14a-(((1-methylcyclopropyl)sulfonyl)carbamoyl)-5,16-dioxo-1,2,3,5,6,7,8,9,10,11,13a,14,14a,15,16,16a-hexadecahydrocyclopropa[e]pyrrolo[1,2-a][1,4]diazacyclopentadecin-6-yl)carbamate] | 26.2 ± 0.6 | 11.8 ± 1.4 |
| COc1ccc2nc(C(F)(F)F)c(O[C@@H]3C[C@H]4C(=O)N[C@]5(C(=O)NS(=O)(=O)C6(C)CC6)C[C@H]5/C=C\CCCCC[C@H](NC(=O)OCC(C)C)C(=O)N4C3)nc2c1 [NR02-41, Isobutyl ((2R,6S,13aS,14aR,16aS,Z)-2-((7-methoxy-3-(trifluoromethyl)quinoxalin-2-yl)oxy)-14a-(((1-methylcyclopropyl)sulfonyl)carbamoyl)-5,16-dioxo-1,2,3,5,6,7,8,9,10,11,13a,14,14a,15,16,16a-hexadecahydrocyclopropa[e]pyrrolo[1,2-a][1,4]diazacyclopentadecin-6-yl)carbamate] | 14.9 ± 1.4 | 4.01 ± 0.46 |
| CCC(C)(C)OC(=O)N[C@H]1CCCCC/C=C\[C@@H]2C[C@@]2(C(=O)NS(=O)(=O)C2(C)CC2)NC(=O)[C@@H]2C[C@@H](Oc3nc4cc(OC)ccc4nc3C(F)(F)F)CN2C1=O [NR02-47, tert-Pentyl ((2R,6S,13aS,14aR,16aS,Z)-2-((7-methoxy-3-(trifluoromethyl)quinoxalin-2-yl)oxy)-14a-(((1-methylcyclopropyl)sulfonyl)carbamoyl)-5,16-dioxo-1,2,3,5,6,7,8,9,10,11,13a,14,14a,15,16,16a-hexadecahydrocyclopropa[e]pyrrolo[1,2-a][1,4]diazacyclopentadecin-6-yl)carbamate] | 15.1 ± 1 | 2.67 ± 0.23 |
| COc1ccc2nc(C(F)(F)F)c(O[C@@H]3C[C@H]4C(=O)N[C@]5(C(=O)NS(=O)(=O)C6(C)CC6)C[C@H]5/C=C\CCCCC[C@H](NC(=O)OCC(C)(C)C)C(=O)N4C3)nc2c1 [NR02-48, Neopentyl ((2R,6S,13aS,14aR,16aS,Z)-2-((7-methoxy-3-(trifluoromethyl)quinoxalin-2-yl)oxy)-14a-(((1-methylcyclopropyl)sulfonyl)carbamoyl)-5,16-dioxo-1,2,3,5,6,7,8,9,10,11,13a,14,14a,15,16,16a-hexadecahydrocyclopropa[e]pyrrolo[1,2-a][1,4]diazacyclopentadecin-6-yl)carbamate] | 13 ± 1.6 | 2.94 ± 0.14 |
| COc1ccc2nc(C)c(O[C@@H]3C[C@H]4C(=O)N[C@]5(C(=O)NS(=O)(=O)C6(C)CC6)C[C@H]5/C=C\CCCCC[C@H](NC(=O)OCC5(C(F)(F)F)CC5)C(=O)N4C3)nc2c1 [NR02-49, (1-(Trifluoromethyl)cyclopropyl)methyl ((2R,6S,13aS,14aR,16aS,Z)-2-((7-methoxy-3-methylquinoxalin-2-yl)oxy)-14a-(((1-methylcyclopropyl)sulfonyl)carbamoyl)-5,16-dioxo-1,2,3,5,6,7,8,9,10,11,13a,14,14a,15,16,16a-hexadecahydrocyclopropa[e]pyrrolo[1,2-a][1,4]diazacyclopentadecin-6-yl)carbamate] | 27.4 ± 1.2 | 0.9 ± 0.1 |
| COc1ccc2nc(C(F)(F)F)c(O[C@@H]3C[C@H]4C(=O)N[C@]5(C(=O)NS(=O)(=O)C6(C)CC6)C[C@H]5/C=C\CCCCC[C@H](NC(=O)OCC5(C(F)(F)F)CC5)C(=O)N4C3)nc2c1 [NR02-50, (1-(Trifluoromethyl)cyclopropyl)methyl ((2R,6S,13aS,14aR,16aS,Z)-2-((7-methoxy-3-(trifluoromethyl)quinoxalin-2-yl)oxy)-14a-(((1-methylcyclopropyl)sulfonyl)carbamoyl)-5,16-dioxo-1,2,3,5,6,7,8,9,10,11,13a,14,14a,15,16,16a-hexadecahydrocyclopropa[e]pyrrolo[1,2-a][1,4]diazacyclopentadecin-6-yl)carbamate] | 39.5 ± 5.1 | 3.46 ± 0.26 |
